Patent publication US20140377350A1, “BILAYER TABLET FORMULATIONS OF FLURBIPROFEN AND GLUCOSAMIN” (Sanovel Ilac Sanayi Ve Ticaret Anonim Sirketi, priority 2012, published 2014)

Experiments:
[1] = cited from earlier work
[2] = in-vitro release (dissolution) of the actives from the bilayer tablet, USP paddle method; format: physicochemical; conditions: 900 ml phosphate buffer pH 7.2, 37° C., 50 RPM
Protocol: Therefore, the release profiles of the actives are as follows; the maximum 40% of total amount of flurbiprofen is released in 2 hours and 50-80% in 6 hours and at least 75% in 8 hours in 900 ml of phosphate buffer at pH 7.2 at 37° C. using USP paddle method rotating at 50 RPM. Glucosamine is released immediately and minimum 75% of the total amount is dissolved in 60 min.

In the case of `CC(C(=O)O)c1ccc(-c2ccccc2)c(F)c1` (stereo not drawn) [flurbiprofen, Flurbiprofen], the solubility in water [1] is listed as “practically insoluble”, the “total amount of flurbiprofen released” value ([2]; in 2 hours) is listed as ≤ 40% and the “total amount of flurbiprofen released” value ([2]; in 6 hours) is listed as 50-80%.
